# Where two headings read alike, the source gives them in different places.
# Key:
# P450 2C19 = P450 2C19 (Homo sapiens, UniProt P33261); assay: P450 inhibition 2C19; assay type: in vitro ADME
# Syncephalastrum sp. = assay: MIC against moulds; assay type: cell-based; conditions: 6 isolates, AmB (AmBisome)
# [1] = Mouse single IV injection: mortality
# A. tubingensis = assay: MIC against moulds; assay type: cell-based; conditions: for MIC A. tubingensis: 6 isolates, AmB (AmBisome)
# [2] = test system: P. variotii MYA-3630 (QC); assay: MIC against moulds; assay type: cell-based; conditions: 5 isolates, AmB (AmBisome)
# [3] = Liver microsome stability; conditions: rat, dog, monkey; for Liver microsome (T1/2, min): Mouse, human: All species
# A. terreus = assay: MIC against moulds; assay type: cell-based
# P450 3A4 = P450 3A4 (Homo sapiens, UniProt P08684); assay: P450 inhibition 3A4; assay type: in vitro ADME
# Sequence of P450 3A4 (P08684 whole entry): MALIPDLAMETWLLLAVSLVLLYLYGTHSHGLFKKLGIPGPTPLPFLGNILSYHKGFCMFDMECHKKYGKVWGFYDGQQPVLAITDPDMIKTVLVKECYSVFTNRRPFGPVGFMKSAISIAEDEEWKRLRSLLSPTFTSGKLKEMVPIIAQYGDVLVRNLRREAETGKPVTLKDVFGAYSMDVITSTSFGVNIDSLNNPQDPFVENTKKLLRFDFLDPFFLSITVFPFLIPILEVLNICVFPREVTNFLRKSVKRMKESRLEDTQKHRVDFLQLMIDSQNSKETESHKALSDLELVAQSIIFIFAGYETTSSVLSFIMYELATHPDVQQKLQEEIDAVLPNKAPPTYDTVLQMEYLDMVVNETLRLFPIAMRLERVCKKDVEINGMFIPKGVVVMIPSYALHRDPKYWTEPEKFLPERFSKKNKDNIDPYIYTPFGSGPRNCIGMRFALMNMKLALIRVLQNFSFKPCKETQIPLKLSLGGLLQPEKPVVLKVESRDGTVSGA
# C. albicans SN250 = assay: In vivo efficacy in murine candidiasis model (C. albicans SN250), female CD-1 mice, kidney fungal burden
# Cryptococcus neoformans = assay: MIC against yeasts; assay type: cell-based
# Solubility in D5W = conditions: in D5W
# Candida krusei = assay: MIC against yeasts; assay type: cell-based
# Fonsecaeu sp. = assay: MIC against moulds; assay type: cell-based; conditions: 6 isolates; AmB (AmBisome)
# P450 2D6 = P450 2D6 (Homo sapiens, UniProt P10635); assay: P450 inhibition 2D6; assay type: in vitro ADME
# Sequence of P450 2D6 (P10635 whole entry): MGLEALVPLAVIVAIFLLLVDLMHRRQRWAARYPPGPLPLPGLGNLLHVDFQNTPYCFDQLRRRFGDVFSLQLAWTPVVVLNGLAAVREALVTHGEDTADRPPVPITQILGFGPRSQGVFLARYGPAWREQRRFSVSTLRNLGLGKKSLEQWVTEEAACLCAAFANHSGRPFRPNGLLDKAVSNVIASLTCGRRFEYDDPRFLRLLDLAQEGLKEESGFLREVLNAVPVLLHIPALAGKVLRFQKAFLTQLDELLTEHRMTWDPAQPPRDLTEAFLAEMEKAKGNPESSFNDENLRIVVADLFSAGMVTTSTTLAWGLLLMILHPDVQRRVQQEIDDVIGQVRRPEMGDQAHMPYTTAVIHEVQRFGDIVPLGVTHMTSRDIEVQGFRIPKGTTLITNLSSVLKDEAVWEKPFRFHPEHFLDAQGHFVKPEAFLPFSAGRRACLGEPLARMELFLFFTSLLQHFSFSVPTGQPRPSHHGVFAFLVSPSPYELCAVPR
# [4] = In vivo mouse pharmacokinetics (IV, CD-1 mice)
# Experimental: Mouse PK (FIG. 2): The experiment was performed using the compounds synthesized in lab and purified by preparative HPLC (>91%). All the compounds were dissolved in D5W (5% dextrose in water) at for IV injection. Female CD-1 mice were (3 per group; body weight approx. 30 g each) injected with the compounds (as per planned dosage) and the blood samples were collected at different time points and the compound content was analysed using the following procedure. • Instrument: Triple Quad 6500+ • Matrix […] CD-1 mouse plasma (EDTA-K2) • Analyte(s): Compound 1 • Internal standard(s): 100 ng/mL Labetalol & 100 ng/mL Tolbutamide in ACN • MS conditions ESI: positive • SRM detection • Compound 1: [M+H]+m/z 979.8>798.4 • Labelatol (IS): [M+H]+m/z 329.2>162.1 • UPLC conditions • Mobile Phase A: 0.1% FA in Water • Mobile Phase B: 0.1% FA in ACN
# An aliquot of 90 μL supernatant was transferred to sample plate and mixed with 60 μL water, then the plate was shaken at 800 rpm for 10 min, 15.0 μL supernatant was injected for LC-MS/MS analysis. • Calibration curve: • 1.00-3000 ng/ml, for Compound 1 in female CD-1 mouse plasma (EDTA-K2)
# Rhodotorula sp. = assay: MIC against yeasts; assay type: cell-based; conditions: 6 isolates, Table 3
# A. niger = assay: MIC against moulds; assay type: cell-based; conditions: 6 isolates, AmB (AmBisome)
# Licht. Ramosa = assay: MIC against moulds; assay type: cell-based; conditions: 6 isolates; AmB (AmBisome)
# P450 1A2 = P450 1A2 (Homo sapiens, UniProt P05177); assay: P450 inhibition 1A2; assay type: in vitro ADME
# Sequence of P450 1A2 (P05177 whole entry): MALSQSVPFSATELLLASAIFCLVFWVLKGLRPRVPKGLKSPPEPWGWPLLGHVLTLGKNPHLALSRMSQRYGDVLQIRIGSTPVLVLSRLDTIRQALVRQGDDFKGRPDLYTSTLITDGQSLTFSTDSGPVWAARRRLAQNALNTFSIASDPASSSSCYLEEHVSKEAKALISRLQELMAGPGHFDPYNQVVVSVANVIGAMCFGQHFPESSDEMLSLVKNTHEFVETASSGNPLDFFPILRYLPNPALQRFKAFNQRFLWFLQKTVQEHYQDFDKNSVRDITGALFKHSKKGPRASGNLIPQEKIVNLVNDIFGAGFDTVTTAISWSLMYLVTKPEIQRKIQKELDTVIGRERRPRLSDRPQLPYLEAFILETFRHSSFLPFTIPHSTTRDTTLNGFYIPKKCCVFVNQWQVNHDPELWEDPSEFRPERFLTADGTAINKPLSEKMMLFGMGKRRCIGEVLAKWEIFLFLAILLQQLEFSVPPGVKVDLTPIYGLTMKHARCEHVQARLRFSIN
# Cryptococcus gattii = assay: MIC against yeasts; assay type: cell-based
# A. lentulus = assay: MIC against moulds; assay type: cell-based; conditions: 6 isolates, AmB (AmBisome)
# P450 2C9 = P450 2C9 (Homo sapiens, UniProt P11712); assay: P450 inhibition 2C9; assay type: in vitro ADME
# Sequence of P450 2C9 (P11712 whole entry): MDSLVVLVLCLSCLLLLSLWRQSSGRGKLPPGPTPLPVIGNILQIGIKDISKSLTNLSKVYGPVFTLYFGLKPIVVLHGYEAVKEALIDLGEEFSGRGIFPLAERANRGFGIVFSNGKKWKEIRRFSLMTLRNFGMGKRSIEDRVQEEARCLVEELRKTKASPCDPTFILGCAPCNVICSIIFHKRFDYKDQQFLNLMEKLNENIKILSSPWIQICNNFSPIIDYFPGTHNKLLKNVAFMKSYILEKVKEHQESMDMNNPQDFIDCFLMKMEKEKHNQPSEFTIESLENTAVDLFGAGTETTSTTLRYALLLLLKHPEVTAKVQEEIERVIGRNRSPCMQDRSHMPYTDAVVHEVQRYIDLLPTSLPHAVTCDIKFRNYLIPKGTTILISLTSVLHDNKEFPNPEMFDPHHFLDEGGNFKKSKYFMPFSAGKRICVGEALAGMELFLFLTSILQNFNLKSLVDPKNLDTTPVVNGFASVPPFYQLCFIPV
# Mucor circinelloides = assay: MIC against moulds; assay type: cell-based; conditions: for MIC Mucor circinelloides: 6 isolates, AmB (AmBisome)
# Coccidioides posadasii = assay: microbe, parasite or virus in culture; assay type: cell-based; conditions: for MIC Coccidioides posadasii: 6 isolates, AmB (AmBisome)
# A. fumigatus = assay: MIC against moulds; assay type: cell-based
# A. calldoustus = assay: MIC against moulds; assay type: cell-based; conditions: 6 isolates; AmB (AmBisome)
# [5] = Tolerance study, IP dosing in immunocompromised mice, no infection; conditions: 25 mg/kg QD IP 7 days, observed 14 days
# Microsporum canis = assay: MIC against yeasts (Table 3A); assay type: cell-based; conditions: 2 isolates
# [6] = test system: Trichophyton mentagropytes; assay: MIC against yeasts (Table 3A); assay type: cell-based; conditions: 3 isolates
# Scedosporium prolificans = assay: MIC against yeasts (Table 3A); assay type: cell-based; conditions: Lomentospora prolificans, 2 isolates
# Epidermophyton floccosum = assay: MIC against yeasts (Table 3A); assay type: cell-based; conditions: 2 isolates
# Malassezia furfur = assay: MIC against yeasts (Table 3A); assay type: cell-based; conditions: 3 isolates
# Trichophyton rubrum = assay: MIC against yeasts (Table 3A); assay type: cell-based; conditions: 3 isolates
# KIM1, LCN2, TIMP1, SPP1 = conditions: mouse, in vivo
# Candida tropicalis = assay: MIC against yeasts; assay type: cell-based; conditions: 10 isolates, Table 3A
# [7] = 2 isolates, Table 3, read-out: MIC Candida krusei
# [8] = 10 isolates, Table 3, read-out: MIC Cryptococcus gattii
# Sequence of P450 2C19 (P33261 whole entry): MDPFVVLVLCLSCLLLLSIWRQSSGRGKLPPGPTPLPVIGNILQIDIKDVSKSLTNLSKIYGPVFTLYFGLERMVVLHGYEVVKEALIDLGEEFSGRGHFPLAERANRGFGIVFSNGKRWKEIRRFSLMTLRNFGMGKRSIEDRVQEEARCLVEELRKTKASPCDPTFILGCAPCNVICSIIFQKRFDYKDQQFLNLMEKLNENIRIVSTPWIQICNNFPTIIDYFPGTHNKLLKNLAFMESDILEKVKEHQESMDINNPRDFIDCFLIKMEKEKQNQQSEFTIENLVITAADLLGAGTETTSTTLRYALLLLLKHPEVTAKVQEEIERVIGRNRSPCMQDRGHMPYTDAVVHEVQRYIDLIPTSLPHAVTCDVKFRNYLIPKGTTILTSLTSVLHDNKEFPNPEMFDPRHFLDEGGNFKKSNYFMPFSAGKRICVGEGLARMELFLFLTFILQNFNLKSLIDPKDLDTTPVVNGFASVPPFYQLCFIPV
smiles,measurement,setting,value
CC1C=CC=CC=CC=CC=CC=CC=CC(OC2OC(C)C(O)C(N)C2O)CC2OC(O)(CC(O)CC(O)C(O)CCC(O)CC(O)CC(=O)OC(C)C(C)C1O)CC(O)C2C(=O)NC(CO)CO (stereo not drawn) [Compound 1],P450 Inhibition (%) 2C19,P450 2C19,0.0%
same,MIC,Syncephalastrum sp.,0.5 µM
same,Mouse single IV injection: mortality (40 mpk),[1],0/4
same,MIC A. tubingensis,A. tubingensis,0.83 µM
same,MIC,[2],2 µM
same,"Liver microsome (T1/2, min)",[3],>145 min
same,MIC,"A. terreus; 6 isolates, AmB (AmBisome)",2 µM
same,P450 Inhibition (%) 3A4,P450 3A4,14.5%
same,Mouse candidiasis model 5 mpk; Log (CFU/mL),C. albicans SN250,4.8 Log (CFU/mL)
same,MIC,"Cryptococcus neoformans; 10 isolates, Table 3",2 µM
same,Solubility,Solubility in D5W,>7220 µM
same,MIC,Candida krusei; [7],2 µM
same,MIC,Fonsecaeu sp.,<0.03 µM
same,P450 Inhibition (%) 2D6,P450 2D6,0.0%
same,In vivo PK AUC0-inf (ng*hr/mL),[4]; 1 mg/kg,18785] ng*hr/mL
same,In vivo PK Cl,[4]; 1 mg/kg,0.891 mL/min/kg
same,"In vivo PK T1/2,",[4]; 1 mg/kg,8.37 h
same,In vivo PK AUC0-inf,[4]; 5 mg/kg,79575 ng·h/mL
same,In vivo PK Cl,[4]; 5 mg/kg,1.05 mL/min/kg
same,"In vivo PK T1/2,",[4]; 5 mg/kg,9.6 h
same,MIC,Rhodotorula sp.,2.8 µM
same,MIC,A. niger,0.5 µM
same,MIC,Licht. Ramosa,0.58 µM
same,P450 Inhibition (%) 1A2,P450 1A2,8.7%
same,MIC,Cryptococcus gattii; [8],1.6 µM
same,MIC,A. lentulus,2.33 µM
same,P450 Inhibition (%) 2C9,P450 2C9,26.9%
same,MIC Mucor circinelloides,Mucor circinelloides,0.58 µM
same,MIC Coccidioides posadasii,Coccidioides posadasii,0.25 µM
same,MIC,"A. fumigatus; 5 isolates, AmB (AmBisome)",1.33 µM
same,MIC,A. calldoustus,2.17 µM
"C[C@@H]1[C@H](O)[C@@H](C)/C=C/C=C/C=C/C=C/C=C/C=C/C=C/[C@H](OC2O[C@H](C)[C@@H](O)[C@H](N)[C@@H]2O)C[C@@H]2O[C@](O)(C[C@@H](O)C[C@@H](O)[C@H](O)CC[C@@H](O)C[C@@H](O)CC(=O)O[C@H]1C)C[C@H](O)[C@H]2C(=O)O (stereo partly drawn) [AmB, Amphotericin B]",Survival,[5],66%
same,MIC,Syncephalastrum sp.; Syncephalastrum,0.06 µM
same,Mouse single IV injection: mortality (40 mpk),[1],0/3
same,MIC,"A. tubingensis; Aspergillus tubingensis, read-out: MIC A. tubingensis",0.125 µM
same,MIC,[2]; Paecilomyces variotii,1 µM
same,half-life,"[3]; mouse, human, liver microsomes",> 2.42 h
same,MIC,"A. terreus; Aspergillus terreus, 5 isolates, Table 2A",7 µM
same,MIC,"A. terreus; Aspergillus terreus, 6 isolates, AmB (AmBisome)",3 µM
same,MIC,Microsporum canis,0.56 µM
same,Mouse candidiasis model 5 mpk; Log (CFU/mL),C. albicans SN250,5.2 Log (CFU/mL)
same,MIC,"Cryptococcus neoformans; Cryptococcus neoformans, 3 isolates, Table 3A",1.17 µM
same,MIC,"Cryptococcus neoformans; Cryptococcus neoformans, 10 isolates, Table 3",0.55 µM
same,MIC,[6],4 µM
same,MIC,"Candida krusei; Pichia kudriavzevii, read-out: MIC Candida krasei",2.5 µM
same,MIC,"Candida krusei; Pichia kudriavzevii, 2 isolates, Table 3, read-out: MIC Candida krusei",1 µM
same,MIC,Scedosporium prolificans,> 16 µM
same,MIC,Fonsecaeu sp.,< 0.03 µM
same,MIC,Epidermophyton floccosum,0.38 µM
same,MIC,Rhodotorula sp.; Rhodotorula,1 µM
same,MIC,A. niger; Aspergillus niger,0.21 µM
same,MIC,Licht. Ramosa,0.15 µM
same,MIC,Malassezia furfur,> 16 µM
same,MIC,"Cryptococcus gattii; Cryptococcus gattii, 1 isolate, Table 3A, read-out: MIC Cryptococcus gatti",1 µM
same,MIC,"Cryptococcus gattii; Cryptococcus gattii, 10 isolates, Table 3, read-out: MIC Cryptococcus gattii",0.75 µM
same,MIC,Trichophyton rubrum,1.1 µM
same,MIC,A. lentulus; Aspergillus lentulus,3.75 µM
same,"Renal toxicity biomarkers KIM1, LCN2, TIMP1, SPP1","KIM1, LCN2, TIMP1, SPP1",elevated
same,MIC,Candida tropicalis,0.8 µM
same,MIC,"Mucor circinelloides; Mucor circinelloides, read-out: MIC Mucor circinelloides",0.125 µM
same,MIC,"Coccidioides posadasii; Coccidioides posadasii, read-out: MIC Coccidioides posadasii",0.06 µM
same,MIC,"A. fumigatus; Aspergillus fumigatus, 5 isolates, AmB (AmBisome)",0.71 µM
same,MIC,"A. fumigatus; Aspergillus fumigatus, 16 isolates, Table 2A",2.1 µM
same,MIC,A. calldoustus,1.5 µM
CC1C=CC=CC=CC=CC=CC=CC=CC(OC2OC(C)C(O)C(N)C2O)CC2OC(O)(CC(O)CC(O)C(O)CCC(O)CC(O)CC(=O)OC(C)C(C)C1O)CC(O)C2C(=O)NC(CO)(CO)CO (stereo not drawn) [Compound 2],P450 Inhibition (%) 2C19,P450 2C19,1.1%
same,MIC,Syncephalastrum sp.,1 µM
same,MIC A. tubingensis,A. tubingensis,0.92 µM
same,MIC,[2],2.67 µM
same,"Liver microsome (T1/2, min)",[3],>145 min
same,MIC,"A. terreus; 6 isolates, AmB (AmBisome)",2.3 µM
same,P450 Inhibition (%) 3A4,P450 3A4,14.5%
same,MIC,"Cryptococcus neoformans; 10 isolates, Table 3",2 µM
same,Solubility,Solubility in D5W,366 µM
same,MIC,Candida krusei; [7],3 µM
same,MIC,Fonsecaeu sp.,<0.03 µM
same,P450 Inhibition (%) 2D6,P450 2D6,0.0%
same,MIC,Rhodotorula sp.,3.7 µM
same,MIC,A. niger,0.75 µM
same,MIC,Licht. Ramosa,0.75 µM
same,P450 Inhibition (%) 1A2,P450 1A2,0.0%
same,MIC,Cryptococcus gattii; [8],2 µM
same,MIC,A. lentulus,4.33 µM
same,P450 Inhibition (%) 2C9,P450 2C9,0.0%
same,MIC Mucor circinelloides,Mucor circinelloides,0.92 µM
same,MIC Coccidioides posadasii,Coccidioides posadasii,0.5 µM
same,MIC,"A. fumigatus; 5 isolates, AmB (AmBisome)",2.33 µM
same,MIC,A. calldoustus,2.33 µM
